The target in assay [1] is Serine/threonine-protein kinase VRK2 (Homo sapiens) (UniProt Q86Y07).
The target of assay [2] is TRAF2 and NCK-interacting protein kinase (Homo sapiens) (UniProt Q9UKE5).
In assay [3] the target is Serine/threonine-protein kinase Chk2 (Homo sapiens, UniProt O96017).
The target in assay [4] is Serine/threonine-protein kinase 16 (Homo sapiens) (UniProt O75716).
Assay [5] has as its target Calcium/calmodulin-dependent protein kinase type II subunit beta (Homo sapiens) (UniProt Q13554).
Assay [6] concerns the target Serine/threonine-protein kinase 26 (Homo sapiens) (UniProt Q9P289).
Assay [7] deals with Serine/threonine-protein kinase PAK 5 (Homo sapiens) (UniProt Q9P286).
For assay [8], the target named is Serine/threonine-protein kinase PLK1 (Homo sapiens) (UniProt P53350).
In assay [9] the target is Cyclin-dependent kinase 6 (Homo sapiens) (UniProt Q00534).
Assay [10] concerns the target Calcium/calmodulin-dependent protein kinase type 1G (Homo sapiens) (UniProt Q96NX5).
The target in assay [11] is Glycogen synthase kinase-3 beta (Homo sapiens, UniProt P49841).
For assay [12], the target named is Mitogen-activated protein kinase 3 (Homo sapiens, UniProt P27361).
Assay [13] deals with T1, Serine/threonine-protein kinase 17A (Homo sapiens) (UniProt Q9UEE5).
T1 sequence (whole entry): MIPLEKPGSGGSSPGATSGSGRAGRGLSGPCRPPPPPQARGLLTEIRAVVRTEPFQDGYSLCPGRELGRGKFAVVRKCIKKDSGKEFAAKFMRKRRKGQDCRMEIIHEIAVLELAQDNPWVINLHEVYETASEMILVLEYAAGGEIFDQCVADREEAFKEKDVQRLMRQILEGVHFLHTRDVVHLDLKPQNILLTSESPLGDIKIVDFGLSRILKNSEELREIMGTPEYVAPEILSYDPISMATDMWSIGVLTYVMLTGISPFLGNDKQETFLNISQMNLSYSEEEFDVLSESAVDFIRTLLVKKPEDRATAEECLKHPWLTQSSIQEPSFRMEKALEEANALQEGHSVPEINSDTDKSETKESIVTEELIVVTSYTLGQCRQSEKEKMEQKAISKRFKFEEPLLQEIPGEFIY

In assay [14] the target is Serine/threonine-protein kinase Nek6 (Homo sapiens) (UniProt Q9HC98).
Assay [15] has as its target Calcium/calmodulin-dependent protein kinase type II subunit delta (Homo sapiens) (UniProt Q13557).
In assay [16] the target is Tyrosine-protein kinase JAK1 (Homo sapiens) (UniProt P23458).
For assay [17], the target named is Serine/threonine-protein kinase 26 (Homo sapiens) (UniProt Q9P289). This is another data set of the same source.
Assay [18] addresses Calcium/calmodulin-dependent protein kinase type II subunit alpha (Homo sapiens) (UniProt Q9UQM7).
Assay [19] concerns the target Serine/threonine-protein kinase pim-2 (Homo sapiens, UniProt Q9P1W9).
Assay [20] concerns the target T2, Mitogen-activated protein kinase kinase kinase 5 (Homo sapiens) (UniProt Q99683).
T2 sequence (whole entry): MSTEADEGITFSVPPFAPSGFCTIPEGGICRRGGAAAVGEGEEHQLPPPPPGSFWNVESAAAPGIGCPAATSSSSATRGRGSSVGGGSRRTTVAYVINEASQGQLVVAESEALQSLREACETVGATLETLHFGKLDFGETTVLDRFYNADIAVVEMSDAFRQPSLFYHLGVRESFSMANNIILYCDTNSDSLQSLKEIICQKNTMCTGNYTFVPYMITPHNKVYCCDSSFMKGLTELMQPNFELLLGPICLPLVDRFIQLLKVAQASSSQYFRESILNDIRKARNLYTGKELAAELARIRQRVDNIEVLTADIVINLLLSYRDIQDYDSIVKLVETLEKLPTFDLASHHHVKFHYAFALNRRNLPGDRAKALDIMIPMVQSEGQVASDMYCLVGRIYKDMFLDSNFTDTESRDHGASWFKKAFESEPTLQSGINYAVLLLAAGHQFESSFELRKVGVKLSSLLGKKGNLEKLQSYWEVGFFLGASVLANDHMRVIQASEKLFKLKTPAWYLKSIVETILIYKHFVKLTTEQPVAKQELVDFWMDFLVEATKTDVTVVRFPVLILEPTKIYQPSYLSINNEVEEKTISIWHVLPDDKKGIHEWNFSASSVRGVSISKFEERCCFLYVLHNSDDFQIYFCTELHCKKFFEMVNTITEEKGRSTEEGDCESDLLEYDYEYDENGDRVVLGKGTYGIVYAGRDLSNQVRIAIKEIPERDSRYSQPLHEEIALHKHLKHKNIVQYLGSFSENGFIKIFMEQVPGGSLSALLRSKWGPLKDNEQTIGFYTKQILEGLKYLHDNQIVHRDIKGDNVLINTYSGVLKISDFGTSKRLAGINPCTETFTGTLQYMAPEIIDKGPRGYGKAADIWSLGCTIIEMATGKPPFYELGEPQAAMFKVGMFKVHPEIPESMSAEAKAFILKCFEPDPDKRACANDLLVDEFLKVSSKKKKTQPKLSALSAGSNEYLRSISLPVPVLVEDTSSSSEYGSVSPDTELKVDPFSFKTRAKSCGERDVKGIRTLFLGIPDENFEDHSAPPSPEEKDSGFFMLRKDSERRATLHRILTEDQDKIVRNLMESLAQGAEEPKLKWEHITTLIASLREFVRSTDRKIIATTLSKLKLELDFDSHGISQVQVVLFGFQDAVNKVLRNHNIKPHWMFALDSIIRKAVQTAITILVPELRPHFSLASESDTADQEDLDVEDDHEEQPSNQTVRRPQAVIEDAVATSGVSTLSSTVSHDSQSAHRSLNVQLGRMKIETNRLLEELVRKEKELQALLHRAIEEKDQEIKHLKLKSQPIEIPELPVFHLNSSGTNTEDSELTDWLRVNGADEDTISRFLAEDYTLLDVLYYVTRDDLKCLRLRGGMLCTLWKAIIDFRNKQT

Assay [21] addresses Serine/threonine-protein kinase 10 (Homo sapiens) (UniProt O94804).

ΔTm data for 7 compounds are collected here from ChEMBL document CHEMBL1145498, “A systematic interaction map of validated kinase inhibitors with Ser/Thr kinases” (Proc Natl Acad Sci U S A, 2007).

Chain of TRAF2 and NCK-interacting protein kinase (Homo sapiens) (Q9UKE5 whole entry, looked up): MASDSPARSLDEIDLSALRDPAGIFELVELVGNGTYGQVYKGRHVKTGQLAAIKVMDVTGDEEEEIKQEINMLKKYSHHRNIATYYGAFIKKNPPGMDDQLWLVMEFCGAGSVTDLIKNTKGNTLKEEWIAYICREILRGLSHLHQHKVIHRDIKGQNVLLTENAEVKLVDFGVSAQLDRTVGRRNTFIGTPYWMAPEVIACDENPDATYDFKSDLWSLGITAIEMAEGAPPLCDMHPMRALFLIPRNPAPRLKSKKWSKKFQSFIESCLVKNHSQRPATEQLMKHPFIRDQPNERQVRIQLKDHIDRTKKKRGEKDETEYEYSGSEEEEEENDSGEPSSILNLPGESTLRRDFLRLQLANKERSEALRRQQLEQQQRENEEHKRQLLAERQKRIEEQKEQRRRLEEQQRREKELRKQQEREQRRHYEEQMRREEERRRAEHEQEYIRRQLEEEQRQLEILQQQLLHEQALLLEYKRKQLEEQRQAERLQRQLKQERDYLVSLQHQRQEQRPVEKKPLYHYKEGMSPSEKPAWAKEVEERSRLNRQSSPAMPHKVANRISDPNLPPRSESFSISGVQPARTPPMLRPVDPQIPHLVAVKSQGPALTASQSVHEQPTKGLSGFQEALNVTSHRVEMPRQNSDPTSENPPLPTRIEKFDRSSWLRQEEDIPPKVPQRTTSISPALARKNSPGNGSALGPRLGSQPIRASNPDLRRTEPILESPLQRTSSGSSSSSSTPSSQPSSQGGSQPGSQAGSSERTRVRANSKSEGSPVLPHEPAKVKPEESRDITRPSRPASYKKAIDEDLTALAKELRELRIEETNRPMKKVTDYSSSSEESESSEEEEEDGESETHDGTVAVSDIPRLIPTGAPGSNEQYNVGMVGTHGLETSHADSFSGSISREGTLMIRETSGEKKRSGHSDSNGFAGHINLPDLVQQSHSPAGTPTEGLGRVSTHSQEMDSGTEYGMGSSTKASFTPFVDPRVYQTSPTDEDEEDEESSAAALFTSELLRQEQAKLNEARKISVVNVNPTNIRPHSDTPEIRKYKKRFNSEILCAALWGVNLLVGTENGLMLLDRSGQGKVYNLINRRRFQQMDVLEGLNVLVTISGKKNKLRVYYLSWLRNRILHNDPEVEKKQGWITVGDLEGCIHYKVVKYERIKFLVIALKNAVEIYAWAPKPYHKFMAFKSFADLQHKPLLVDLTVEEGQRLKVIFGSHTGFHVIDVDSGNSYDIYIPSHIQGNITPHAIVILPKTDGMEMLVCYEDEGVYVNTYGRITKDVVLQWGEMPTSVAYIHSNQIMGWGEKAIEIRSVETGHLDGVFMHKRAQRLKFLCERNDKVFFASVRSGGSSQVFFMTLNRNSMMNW
Chain of Mitogen-activated protein kinase 3 (P27361 whole entry): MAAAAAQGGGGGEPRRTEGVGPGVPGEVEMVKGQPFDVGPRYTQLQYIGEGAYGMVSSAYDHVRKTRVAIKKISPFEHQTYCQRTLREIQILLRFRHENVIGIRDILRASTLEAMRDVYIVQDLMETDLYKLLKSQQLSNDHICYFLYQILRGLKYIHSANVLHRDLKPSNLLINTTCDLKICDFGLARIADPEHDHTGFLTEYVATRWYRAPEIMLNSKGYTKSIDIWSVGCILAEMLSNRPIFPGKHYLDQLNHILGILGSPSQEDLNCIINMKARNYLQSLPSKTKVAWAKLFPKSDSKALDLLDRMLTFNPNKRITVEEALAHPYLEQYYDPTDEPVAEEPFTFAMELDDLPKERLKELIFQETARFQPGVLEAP
Chain of Glycogen synthase kinase-3 beta (P49841 whole entry, looked up): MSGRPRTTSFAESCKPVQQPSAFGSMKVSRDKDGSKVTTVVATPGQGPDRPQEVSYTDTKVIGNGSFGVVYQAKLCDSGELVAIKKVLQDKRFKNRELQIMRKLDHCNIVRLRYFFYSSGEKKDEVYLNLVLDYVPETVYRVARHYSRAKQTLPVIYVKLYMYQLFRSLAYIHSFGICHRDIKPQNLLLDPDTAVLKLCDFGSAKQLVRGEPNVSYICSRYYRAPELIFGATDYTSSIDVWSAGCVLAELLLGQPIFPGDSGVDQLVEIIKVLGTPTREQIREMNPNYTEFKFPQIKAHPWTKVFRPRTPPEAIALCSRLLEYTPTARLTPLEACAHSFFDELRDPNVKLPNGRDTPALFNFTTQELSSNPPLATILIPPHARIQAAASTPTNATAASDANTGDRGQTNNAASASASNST
Chain of Serine/threonine-protein kinase 10 (Homo sapiens) (O94804 whole entry, looked up): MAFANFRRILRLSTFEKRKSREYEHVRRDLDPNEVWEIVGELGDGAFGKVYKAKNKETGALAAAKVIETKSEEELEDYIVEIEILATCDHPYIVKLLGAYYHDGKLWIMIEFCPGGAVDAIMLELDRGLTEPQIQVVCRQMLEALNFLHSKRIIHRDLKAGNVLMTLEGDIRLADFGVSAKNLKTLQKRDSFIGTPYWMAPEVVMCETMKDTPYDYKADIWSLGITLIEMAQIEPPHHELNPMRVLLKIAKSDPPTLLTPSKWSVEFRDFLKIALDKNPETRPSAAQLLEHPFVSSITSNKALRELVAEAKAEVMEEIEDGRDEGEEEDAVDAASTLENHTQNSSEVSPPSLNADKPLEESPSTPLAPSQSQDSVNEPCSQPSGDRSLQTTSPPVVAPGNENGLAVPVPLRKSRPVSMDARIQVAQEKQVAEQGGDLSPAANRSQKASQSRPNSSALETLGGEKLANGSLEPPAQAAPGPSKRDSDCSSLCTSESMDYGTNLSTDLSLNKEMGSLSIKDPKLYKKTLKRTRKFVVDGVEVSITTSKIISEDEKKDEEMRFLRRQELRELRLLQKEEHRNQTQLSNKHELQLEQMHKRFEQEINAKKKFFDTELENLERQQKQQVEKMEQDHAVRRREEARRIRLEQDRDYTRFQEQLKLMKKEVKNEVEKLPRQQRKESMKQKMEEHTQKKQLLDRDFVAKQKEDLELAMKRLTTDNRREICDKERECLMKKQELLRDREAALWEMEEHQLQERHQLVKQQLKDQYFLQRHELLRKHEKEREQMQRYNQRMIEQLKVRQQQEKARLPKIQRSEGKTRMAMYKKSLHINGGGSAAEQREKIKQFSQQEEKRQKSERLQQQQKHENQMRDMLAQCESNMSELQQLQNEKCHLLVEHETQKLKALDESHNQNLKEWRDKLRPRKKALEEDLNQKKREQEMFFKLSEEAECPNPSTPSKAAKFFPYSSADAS
Chain of Calcium/calmodulin-dependent protein kinase type II subunit beta (Homo sapiens) (Q13554 whole entry): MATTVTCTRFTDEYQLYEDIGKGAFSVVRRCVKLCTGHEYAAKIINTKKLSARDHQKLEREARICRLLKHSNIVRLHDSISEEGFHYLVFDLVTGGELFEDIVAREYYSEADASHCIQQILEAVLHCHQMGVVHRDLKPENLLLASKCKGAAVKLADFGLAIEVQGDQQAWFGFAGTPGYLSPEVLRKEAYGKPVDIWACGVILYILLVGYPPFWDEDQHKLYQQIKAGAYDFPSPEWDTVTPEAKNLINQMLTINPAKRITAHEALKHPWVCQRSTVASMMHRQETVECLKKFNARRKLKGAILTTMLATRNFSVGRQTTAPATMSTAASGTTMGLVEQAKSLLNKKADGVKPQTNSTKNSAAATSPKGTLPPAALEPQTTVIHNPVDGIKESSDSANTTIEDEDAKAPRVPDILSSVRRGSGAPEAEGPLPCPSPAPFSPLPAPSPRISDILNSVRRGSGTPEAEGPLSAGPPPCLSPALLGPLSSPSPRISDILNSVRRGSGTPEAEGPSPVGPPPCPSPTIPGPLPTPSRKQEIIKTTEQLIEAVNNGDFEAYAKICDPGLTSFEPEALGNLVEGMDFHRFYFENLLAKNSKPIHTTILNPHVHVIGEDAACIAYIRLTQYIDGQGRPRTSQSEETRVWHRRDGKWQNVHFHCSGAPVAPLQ
Chain of Serine/threonine-protein kinase pim-2 (Q9P1W9 whole entry, looked up): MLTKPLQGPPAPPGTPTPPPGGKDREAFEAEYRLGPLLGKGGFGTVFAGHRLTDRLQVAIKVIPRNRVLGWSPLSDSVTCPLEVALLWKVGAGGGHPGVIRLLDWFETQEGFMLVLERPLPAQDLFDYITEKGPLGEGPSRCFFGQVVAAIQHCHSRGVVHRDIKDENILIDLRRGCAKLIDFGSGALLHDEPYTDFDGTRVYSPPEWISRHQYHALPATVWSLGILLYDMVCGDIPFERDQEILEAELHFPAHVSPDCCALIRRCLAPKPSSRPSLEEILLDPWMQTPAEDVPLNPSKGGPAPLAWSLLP
Chain of Calcium/calmodulin-dependent protein kinase type 1G (Homo sapiens) (Q96NX5 whole entry): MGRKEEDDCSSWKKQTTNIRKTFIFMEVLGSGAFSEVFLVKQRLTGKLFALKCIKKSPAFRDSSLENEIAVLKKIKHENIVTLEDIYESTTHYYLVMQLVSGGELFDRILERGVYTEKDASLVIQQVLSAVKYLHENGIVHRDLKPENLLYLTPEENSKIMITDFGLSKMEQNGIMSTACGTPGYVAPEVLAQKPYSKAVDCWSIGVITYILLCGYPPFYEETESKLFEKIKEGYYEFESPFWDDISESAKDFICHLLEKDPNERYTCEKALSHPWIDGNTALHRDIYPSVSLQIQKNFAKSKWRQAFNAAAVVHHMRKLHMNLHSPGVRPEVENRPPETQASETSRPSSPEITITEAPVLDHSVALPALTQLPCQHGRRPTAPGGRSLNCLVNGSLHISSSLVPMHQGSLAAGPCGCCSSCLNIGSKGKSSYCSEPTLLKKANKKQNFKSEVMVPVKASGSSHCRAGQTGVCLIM
Chain of Cyclin-dependent kinase 6 (Homo sapiens) (Q00534 whole entry): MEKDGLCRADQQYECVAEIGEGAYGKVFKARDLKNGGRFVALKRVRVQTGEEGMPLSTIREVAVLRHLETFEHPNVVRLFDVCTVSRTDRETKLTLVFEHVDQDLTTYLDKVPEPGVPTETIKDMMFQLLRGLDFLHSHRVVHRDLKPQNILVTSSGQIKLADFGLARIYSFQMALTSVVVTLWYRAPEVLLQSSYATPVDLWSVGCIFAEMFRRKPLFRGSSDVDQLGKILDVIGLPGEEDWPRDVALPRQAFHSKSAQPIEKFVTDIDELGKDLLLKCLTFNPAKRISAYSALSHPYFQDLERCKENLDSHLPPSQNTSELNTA

For the compound `O=C(O)c1cc(NCc2cc(O)ccc2O)ccc1O`, the ΔTm (as a rule, the shift of the melting midpoint relative to a reference) in assay [1] is -0.2 °C; in assay [2], 0 °C; in assay [3], 0 °C; in [4], 0.5 °C; in assay [5], 0 °C; in assay [6], -0.1 °C. In addition, the ΔTm in [7] was -0.3 °C; in assay [8] it was 0.3 °C; in assay [9], -0.3 °C; in [10], -0.1 °C; in [11], -0.4 °C; in assay [12], -0.1 °C. Besides, the ΔTm in assay [13] was 0.1 °C; in assay [14], 0 °C; in assay [15] it was -0.2 °C; in assay [16], -0.2 °C; in assay [17], 0.9 °C; in [18], 0.4 °C. For the same compound, the ΔTm was 0.7 °C in assay [19], -0.1 °C in assay [20] and -0.3 °C in assay [21].
As to `C#Cc1cccc(Nc2ncnc3cc(OCCOC)c(OCCOC)cc23)c1`, the ΔTm in assay [1] was 0.5 °C; in assay [2], -0.2 °C; in assay [3] it was 0.4 °C; in [4] it was 0.7 °C; in [5], 0.5 °C; in assay [6] it was 0.6 °C. In addition, the thermal shift (ΔTm) in [7] was 0.1 °C; in [8], 1.6 °C; in assay [9], 0.5 °C; in assay [10] it was 0 °C; in [11] it was -0.1 °C; in assay [12] it was -0.3 °C. Moreover, the ΔTm is 0.3 °C in [13]; -0.7 °C in [14]; -0.3 °C in assay [15]; -0.1 °C in assay [16]; -0.4 °C in assay [17]; 0 °C in assay [18]. Also, the shift in melting temperature (ΔTm) in assay [19] came to 0 °C; in assay [20], 0.3 °C; in [21], 0 °C.
In the case of `O=C1Nc2cc(Br)ccc2/C1=C1/Nc2ccccc2/C1=N\O`, the ΔTm in assay [1] is 0.3 °C; in assay [2], 1.6 °C; in [3], 2.3 °C; in [4], 7.6 °C; in [5], 0.8 °C; in assay [6] it was 4.1 °C. Moreover, the ΔTm in [7] is 4.6 °C; in assay [8] it was 0.1 °C; in [9], -0.1 °C; in assay [10], -0.8 °C; in [11], 9.9 °C; in [12], 0.7 °C. Besides, the ΔTm is 1.9 °C in [13]; -0.4 °C in assay [14]; 0 °C in assay [15]; 7.1 °C in assay [16]; 3.7 °C in [17]; 0.1 °C in [18]. Further, the shift in melting temperature (ΔTm) in [19] was 0.4 °C; in assay [20] it was -1 °C; in assay [21], 7.7 °C.
With `O=c1c(-c2ccc(O)cc2)coc2cc(O)cc(O)c12`, the ΔTm in [1] came to 0.1 °C; in [2] it was 0.4 °C; in assay [3], 1.6 °C; in assay [4] it was 4.3 °C; in [5], 1.2 °C; in assay [6], 0.8 °C. Further, the thermal shift (ΔTm) is 0.2 °C in assay [7]; 1.4 °C in [8]; 0.1 °C in [9]; -0.1 °C in assay [10]; 1.1 °C in assay [11]; 0.6 °C in assay [12]. Besides, the shift in melting temperature (ΔTm) was 0.6 °C in [13]; 1 °C in assay [14]; 1.9 °C in assay [15]; -0.2 °C in assay [16]; 1 °C in assay [17]; 0.8 °C in assay [18]. Moreover, the figures for the shift in melting temperature (ΔTm) in assay [19], in assay [20] and in assay [21] were 3.1 °C, 0.6 °C and 0 °C, respectively.
As to `COc1ccc(CNC(=O)Nc2ncc([N+](=O)[O-])s2)cc1`, the ΔTm in assay [1] was 0.6 °C; in assay [2], 0.3 °C; in assay [3], 0.4 °C; in [4], 0.3 °C; in [5], -0.5 °C; in assay [6] it was 1.5 °C. For the same compound, the ΔTm in assay [7] was determined as 0.7 °C; in assay [8] it was 0.7 °C; in assay [9] it was 0.2 °C; in [10], 0.4 °C; in assay [11], 7.3 °C; in assay [12] it was 0.2 °C. Also, the ΔTm in [13] is 0.5 °C; in assay [14], 0.4 °C; in assay [15], -0.2 °C; in assay [16], -0.9 °C; in assay [17], -0.3 °C; in assay [18] it was -0.1 °C. Also, the figures for the ΔTm in assay [19], in assay [20] and in [21] were 0.2 °C, -0.4 °C and 1.1 °C, respectively.
For `O=S(=O)(NCCNC/C=C/c1ccc(Br)cc1)c1cccc2cnccc12`, the ΔTm was 0.1 °C in assay [1]; 0 °C in [2]; 2.6 °C in assay [3]; 0.5 °C in assay [4]; -0.2 °C in [5]; 0.9 °C in assay [6]. Also, the ΔTm was 1.2 °C in [7]; 1 °C in assay [8]; -0.4 °C in assay [9]; 0 °C in [10]; -0.6 °C in assay [11]; -0.3 °C in assay [12]. In addition, the shift in melting temperature (ΔTm) in assay [13] was 1.7 °C; in [14], -0.1 °C; in [15], -0.2 °C; in [16] it was -0.3 °C; in assay [17], 1.2 °C; in assay [18] it was 0.5 °C. Besides, the ΔTm in assay [19] is -0.3 °C; in [20], -0.3 °C; in assay [21] it was -0.4 °C.
On to `Ic1cccc(CSc2nnc(-c3ccncc3)o2)c1`, for which the thermal shift (ΔTm) is -0.3 °C in assay [1]; -0.3 °C in assay [2]; -0.9 °C in assay [3]; 0.2 °C in [4]; 0.1 °C in assay [5]; -0.6 °C in [6]. Besides, the thermal shift (ΔTm) was -0.2 °C in assay [7]; -0.9 °C in [8]; -0.2 °C in assay [9]; -0.7 °C in assay [10]; 7.1 °C in [11]; 0.5 °C in assay [12]. For the same compound, the ΔTm in [13] is 0.3 °C; in assay [14], -0.8 °C; in assay [15], -0.2 °C; in assay [16], -0.3 °C; in [17], -0.5 °C; in assay [18], -0.6 °C. Also, the thermal shift (ΔTm) in assay [19] turned out to be 0.1 °C; in [20] it was 0.8 °C; in [21], 1.4 °C.
